# From patent US20240263127A1, “CRYOPROTECTIVE COMPOSITIONS AND USES THEREOF” (DUPONT NUTRITION BIOSCIENCES APS, priority 2010, published 2024)
# Like-named read-outs stand apart in the source and are kept apart here.
# What was measured:
# [1] = tested on: Lactobacillus acidophilus; type: cell-based; settings: for Viable cell counts after accelerated stability test: L. acidophilus; for Recovery of viable cell after accelerated stability test: Lactobacillus acidophilus, 14 days
# Description: (§1) The cell count of the freeze dried material has been evaluated through a typical bacteria enumeration method used for lactic acid bacteria. In this method, the freeze dried bacteria were suspended into a MRS solution with a stomacher and revitalized in that solution for 30 minutes. The suspension was then successively diluted in bottles of peptone buffer and finally cultured on a MRS nutritive media for 48 to 72 hours at 38° C. under anaerobic condition. During that period, the bacteria form colonies on the nutritive media. Those colonies were counted and results were expressed as Colony Forming Units (CFU) per gram. Long term stability of freeze dried bacteria as a function of time is a critical characteristic for commercial application. The long term stability can be evaluated by accelerated stability test consisting of placing the freeze dried cells into a sealed laminated aluminum foil in a constant temperature chamber maintained at 38° C. for fourteen days. The cell count of the freeze dried material is measured before and after the exposure to elevated temperature. A recovery rate of cells is calculated by subtracting the cells measured after the accelerated stability test from the initial cells measurement and dividing the subtraction results by the initial count. The accelerated stability test recovery rate gives a relative estimate of the long term cell stability. Various cryoprotectants (see table 1) were mixed in a suspension containing, Lactobacillus acidophilus at an approximate cell count of 1E11 CFU/gr. The mixture, called stabilized concentrate, was kept at 4-8° C. for 1.5 hrs and continuously agitated before being frozen by dispensing droplets of the stabilized concentrate into liquid nitrogen. The resulting frozen droplets are called frozen pellets. The frozen pellets were freeze dried in a Virtis® freeze drier at 100 mT and a cell count measurement was performed just after freeze drying by performing an accelerated stability test. Various ratio of Inositol over Trehalose have been tested. The cryoprotectants were mixed for 1 to 3 hrs at 10-30° C. to a suspension containing Lactobacillus acidophilus at an approximate cell count of 1E11 CFU/gr. The mixture was frozen and freeze dried, and a cell count was performed just after freeze drying by performing an accelerated stability test, as disclosed in Example 1.
# [2] = tested on: Lactobacillus acidophilus; experiment: Viable cell count after freeze drying with cryoprotectant; type: cell-based; settings: for Recovery of viable cell from frozen pellets to freeze dried pellets: Example 2
# Description: as §1, with “gram.” for “gram. Long term stability of freeze dried bacteria as a function of time is a critical characteristic for commercial application. The long term stability can be evaluated by accelerated stability test consisting of placing the freeze dried cells into a sealed laminated aluminum foil in a constant temperature chamber maintained at 38° C. for fourteen days. The cell count of the freeze dried material is measured before and after the exposure to elevated temperature. A recovery rate of cells is calculated by subtracting the cells measured after the accelerated stability test from the initial cells measurement and dividing the subtraction results by the initial count. The accelerated stability test recovery rate gives a relative estimate of the long term cell stability.”
# [3] = freeze dried cells 38° C. for fourteen days, Example 1
# [4] = L. acidophilus suspension approx. 1E11 CFU/gr, freeze dried at 100 mT, Example 1
# [5] = 38° C. for fourteen days, Example 2
# [6] = L. acidophilus, Example 2, Trehalose/Inositol ratios
SMILES,"Viable cell counts after accelerated stability test [1, 3] [CFU/gr]",Recovery of viable cell after accelerated stability test [1] [%],"Viable cell counts after freeze drying [2, 4] [CFU/gr]",Recovery of viable cells after accelerated stability test [1] [%],"Viable cell counts after accelerated stability test [1, 5] [CFU/gr]",Recovery of viable cell from frozen pellets to freeze dried pellets ([2]; L. acidophilus) [%],"Viable cell counts after freeze drying [2, 6] [CFU/gr]"
"OC[C@H]1O[C@H](O[C@H]2O[C@H](CO)[C@@H](O)[C@H](O)[C@H]2O)[C@H](O)[C@@H](O)[C@@H]1O [Trehalose alone experiment 2, Trehalose]",2.4E+11,38.0,6.6E+11,–,–,–,–
"O[C@H]1[C@H](O)[C@@H](O)[C@H](O)[C@@H](O)[C@H]1O [Trehalose 0.0 / Inositol 20.0, Inositol]",–,–,–,65.41,2.42E+11,94.7,3.70E+11
"OC[C@H]1O[C@H](O[C@H]2O[C@H](CO)[C@@H](O)[C@H](O)[C@H]2O)[C@H](O)[C@@H](O)[C@@H]1O [Trehalose alone experiment 1, Trehalose]",2.2E+11,29.0,7.4E+11,–,–,–,–
"O[C@H]1[C@H](O)[C@@H](O)[C@H](O)[C@@H](O)[C@H]1O [Trehalose 0.0 / Inositol 9.1, Inositol]",–,–,–,72.37,3.72E+11,81.2,5.14E+11
"O[C@H]1[C@H](O)[C@@H](O)[C@H](O)[C@@H](O)[C@H]1O [Inositol alone, Inositol]",1.3E+11,41.0,3.2E+11,–,–,–,–
